Experimental data taken from US20240384268A1, “Oligonucleotides” (Hudson Institute of Medical Research, priority 2021, published 2024).
In the oligonucleotide strings, read from the 5' end, every base follows the letter of its sugar. An asterisk marks phosphorothioate; unmarked linkages are phosphodiester. Other units and linkages are bracketed, terminal groups are in braces. A string of capitals states the bases alone. d = 2'-deoxy (DNA); m = 2'-O-methyl

How the values were obtained:
mouse cGAS = target: T1, mouse cGAS (Mus musculus, UniProt Q8C6L5); assay: ISD45-driven ISRE-luciferase in mouse LL171 cells; assay type: cell-based; conditions: for effect on ISD-driven ISRE-luciferase, LNA and MOE ASOs (in words): 200 nM or indicated concentrations, ~30 min, ISD overnight (FIG. 22-24); for inhibition of ISD45-driven ISRE-luciferase (in words): 2′OMe or PS oligos 50-600 nM, ISD45 2.5 μg/ml overnight
T1 construct: endogenous in cells; host or cells: LL171 (mouse L929 cells with ISRE-Luciferase)
Procedure: In such examples, inhibition of cGAS activity can be identified by observation of an overall decreased cGAS response of the cell population, or a lower proportion of cells having cGAS-positive activity as compared to positive control condition in which cells are treated with cGAS agonist in the absence of the oligonucleotide (or in the presence of an appropriate control inhibitory agent). In one example, THP-1 or HT-29 cells are transfected with ISD70 and incubated with an oligonucleotide. cGAS activity can then be determined by cytokine (e.g., IP-10 and/or IFNβ) expression (e.g., gene and/or protein expression) and/or secretion levels, such as by ELISA. A similar assay can be performed with LL171 cells transfected with ISD45. […] By way of example, cGAS enzymatic activity may be assessed in vitro using recombinant cGAS and then measuring activity thereof by way of a cGAMP ELISA.
For cGAS stimulations, cells were treated for indicated duration with ASOs, prior to transfection with ISD70 (human cells) or ISD45 (mouse cells) (the ASOs were not washed off prior to ISD transfection unless otherwise indicated). The cGAS ligands ISD45 (Stetson and Medzhitov, 2006) and ISD70 (also known as VACV-70 (Unterholzner et al., 2010)) (Table 1) were resuspended as follows: 5 1d of sense and 5 μl of antisense strands at 10 μg/μl were added to 90 μl PBS under sterile conditions, heated at 75° C. for 30 min, prior to letting cool down at room temperature and aliquoting (stock at 1 μg/1 l). The ISDs were transfected at a concentration of […] at a ratio of 1 μg:1 μl with Lipofectamine 2000 in Opti-MEM (Thermo Fisher Scientific). HEK-TLR3, HEK-TLR7 and […] were treated with indicated concentration of ASOs for 20-50 min, prior to stimulation with poly(I:C) (Invivogen), R848 (Invivogen), Motolimod (MedChemExpress) and the Class B CpG oligonucleotides ODN 2006 (synthesised by IDT and resuspended in RNase-free TE buffer [Table 1]), respectively. The TLR2/1 agonist PAM3CSK4 (Invivogen), the TLR4 agonist lipopolysaccharide (Invivogen), the Class B CpG oligonucleotides ODN 1826 (synthesised by IDT and resuspended in RNase-free TE buffer), the mouse Sting agonist DMXAA (Cayman) and the human STING agonist (compound #3 from (Raanjulu et al., 2018), referred to as GSK herein—kind gift from Cancer Therapeutics CRC, Australia) were used at indicated concentrations. Aspirin (Sigma—A2093) was resuspended in pure medium to 10 mM, filter sterilised and added to the cells at 2 mM final. All ASOs were synthesised by Integrated DNA Technologies (IDT), and resuspended in RNase-free TE buffer, pH 8.0 (Thermo Fisher Scientific). Cell viability was assessed by adding 1× fresh resazurin solution to the wells (10λ solution made up with 7 mg resazurin [Sigma—R7017] dissolved in 3.5 ml PBS, sterile filtered at […]) for 4 h, prior to reading at with a Fluostar OPTIMA (BMG LABTECH) plate-reader (fluorescence: Excitation 535 nm, Emission 590); wells with medium only and 1× resazurin were used as blanks.
Following transfection, the cells were collected from the 6-wells and aliquoted into 96-wells, just before ASO and overnight TLR stimulation (as above described).

[1] = target: T2, Recombinant full-length human cGAS (Homo sapiens, UniProt Q8N884); assay: cGAS in vitro assay and cGAMP ELISA; assay type: biochemical; conditions: 2.3 μM ISD70, 40 min; for cGAMP production driven by ISD70 (in words): 0.5 μM oligonucleotide
T2 construct: Recombinant full-length human cGAS (Cayman, #22810); purchased Cayman #22810
Procedure: 0.8 μg of Recombinant full-length human cGAS (Cayman, #22810) was used per single reaction in a 200 μl volume with 80 mM Tris-HCl (pH 7.5), 200 mM NaCl, 20 μM ZnCl2, 20 mM MgCl2, 0.25 mM GTP (Thermofisher #R0441) and 0.25 mM ATP (Thermofisher #R0461), with 20 μg of ISD70 (freshly annealed at 1 μg/l in PBS), and 2 μl C2-Mut1/A151 diluted in TE buffer (to get 0.5, 2 or 10 μM ODN concentration in 200 l). After 40 min at 37° C., 2.5 mM EDTA was added to each tube to stop the enzymatic reaction and the samples were either snap frozen and stored at −80° C. or directly processed for cGAMP ELISA. cGAMP levels were measured with the DetectX Direct 2′,3′-Cyclic GAMP Enzyme Immunoassay Kit (Arbor Assays), according to the manufacturer's protocol. Briefly, 50 μL of in vitro reaction were added per well of the kit microplate with 50 μL Assay buffer, 25 μL conjugate, and 25 μL Antibody per well, prior to a minimum of 2 h incubation. The standards were prepared with serial-dilution in Assay buffer. Quantification of cGAMP levels was performed on a Fluostar OPTIMA (BMG LABTECH) plate-reader at 450 nm.

cGAS = cGAS (Mus musculus, UniProt Q8C6L5); assay: IFN-driven gene expression in Trex1-mutant primary BMDMs, RT-qPCR; conditions: 50 nM ASO transfected 20 h
Sequence of cGAS (Q8C6L5 whole entry): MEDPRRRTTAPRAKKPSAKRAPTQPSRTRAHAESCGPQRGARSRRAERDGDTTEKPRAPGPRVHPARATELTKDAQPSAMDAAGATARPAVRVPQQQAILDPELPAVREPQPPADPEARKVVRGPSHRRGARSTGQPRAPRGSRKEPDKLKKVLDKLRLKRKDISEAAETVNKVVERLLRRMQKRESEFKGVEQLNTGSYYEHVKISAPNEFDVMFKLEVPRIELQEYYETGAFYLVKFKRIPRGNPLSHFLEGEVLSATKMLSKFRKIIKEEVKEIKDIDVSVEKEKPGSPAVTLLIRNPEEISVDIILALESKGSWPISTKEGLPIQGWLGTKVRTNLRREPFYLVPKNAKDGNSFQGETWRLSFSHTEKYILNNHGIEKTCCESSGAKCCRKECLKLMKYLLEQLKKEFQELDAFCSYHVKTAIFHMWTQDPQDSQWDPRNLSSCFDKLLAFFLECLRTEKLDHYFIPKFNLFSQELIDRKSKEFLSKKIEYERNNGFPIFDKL

T1 sequence (Q8C6L5 whole entry): as above
T2 sequence (Q8N884 whole entry): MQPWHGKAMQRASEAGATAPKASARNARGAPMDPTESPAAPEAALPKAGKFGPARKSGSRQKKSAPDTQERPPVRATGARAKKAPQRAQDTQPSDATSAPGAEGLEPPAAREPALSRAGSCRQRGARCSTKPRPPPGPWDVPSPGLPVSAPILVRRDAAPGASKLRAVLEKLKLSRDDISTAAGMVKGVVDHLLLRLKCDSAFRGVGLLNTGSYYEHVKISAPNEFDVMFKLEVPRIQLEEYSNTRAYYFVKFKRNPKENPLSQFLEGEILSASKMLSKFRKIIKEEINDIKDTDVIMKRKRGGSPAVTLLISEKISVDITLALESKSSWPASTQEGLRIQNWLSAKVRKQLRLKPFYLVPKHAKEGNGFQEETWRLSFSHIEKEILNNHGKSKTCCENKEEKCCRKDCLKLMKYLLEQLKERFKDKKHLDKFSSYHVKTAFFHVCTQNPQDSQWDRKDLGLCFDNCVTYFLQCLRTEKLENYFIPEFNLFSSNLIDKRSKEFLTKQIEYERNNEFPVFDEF

Substance | effect on ISD-driven ISRE-luciferase, LNA and MOE ASOs (in words) (mouse cGAS) | cGAMP production driven by ISD70 (in words) [1] | basal expression of ISGs (Rsad2, Ifit1) in Trex1-mutant BMDMs (in words) (cGAS) | inhibition of ISD45-driven ISRE-luciferase (in words) (mouse cGAS) | further results
GCAGGCTCAGTGATGT (antisense; LNA-modified, pattern not given here) [CTNN2B-1642 LNA V1] | increased potentiation of ISD sensing |  |  |  | 
GTGTCTGGAAGCTTCC (antisense; LNA-modified, pattern not given here) [CTNN2B-809 LNA V1] | strongly potentiating the ISRE-Luciferase signal |  |  |  | 
T*T*A* G*G*G* T*T*A* G*G*G* T*T*A* G*G*G* T*T*A* G*G*G [A151, reference compound] |  | similarly reduced cGAMP production | failed to inhibit these ISGs |  | 
mC*mG*mU*T*T*C*C*C*C*C*C*C*C*C*C*C*C*C*C*C (CGUTTCCCCCCCCCCCCCCC; antisense; sugars from the 5' end m3 d17, all phosphorothioate, methylation of C not given here) [[C2]Mut1-v3-dC] |  |  |  | lacked significant inhibitory activity | 
mG*mC*mG*mG*mU*A*T*C*C*A*T*G*T*C*C*mC*mA*mG*mG*mC (mG*mC*mG*mG*mU*dA*dT*dC*dC*dA*dT*dG*dT*dC*dC*mC*mA*mG*mG*mC; antisense) [C2-Mut1] |  | similarly reduced cGAMP production | significantly decreased the basal expression of two ISGs | significantly more inhibitory | inhibitory activity on cGAMP production relative to A151 ([1]; 2 μM oligonucleotide): about 2 fold
mG*mG*mU*A*T*C*C*C*C*C*C*C*C*C*C*C*C*C*C*C (GGUATCCCCCCCCCCCCCCC; antisense; sugars from the 5' end m3 d17, all phosphorothioate, methylation of C not given here) [[C2]Mut1-dC] |  |  |  | significantly more inhibitory than its precursor dC20 | 
